Source: patent US20160120863A1, “SLC2A TRANSPORTER INHIBITORS” (IOMET PHARMA LTD., priority 2013, published 2016)

Columns and labels:
Assay type in all cases: cell-based
human GLUT1 = molecular target: T1, human GLUT1 (Homo sapiens, UniProt P11166); test: [3H]-deoxy-D-glucose uptake assay, GLUT1; conditions: [3H]-deoxy-D-glucose uptake in HEK293 cells stably expressing human GLUT1
T1 construct: expressed in transfected cells
T1 sequence (P11166 1-492): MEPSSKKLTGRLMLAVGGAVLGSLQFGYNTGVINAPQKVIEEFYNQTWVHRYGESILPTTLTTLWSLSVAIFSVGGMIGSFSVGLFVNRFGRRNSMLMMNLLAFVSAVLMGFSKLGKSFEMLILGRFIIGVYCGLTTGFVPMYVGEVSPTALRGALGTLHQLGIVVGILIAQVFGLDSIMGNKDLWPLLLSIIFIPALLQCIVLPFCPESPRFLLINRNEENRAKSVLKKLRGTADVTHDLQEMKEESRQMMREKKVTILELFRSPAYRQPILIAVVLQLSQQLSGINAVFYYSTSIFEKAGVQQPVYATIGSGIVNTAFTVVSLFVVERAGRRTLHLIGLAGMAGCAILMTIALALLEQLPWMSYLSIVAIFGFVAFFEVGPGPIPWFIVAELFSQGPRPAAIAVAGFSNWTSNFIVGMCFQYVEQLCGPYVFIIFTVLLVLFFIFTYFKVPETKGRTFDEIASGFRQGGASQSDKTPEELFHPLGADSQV
How it was run: (§1)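 HEK293 cells stably overexpressing human GLUT1 or GLUT2, seeded at 60,000 per well, treated with compounds in glucose-free uptake buffer for 30 min at 37 °C. [3H]-deoxy-D-glucose uptake quantified by scintillation counting after ice-cold PBS washes; IC50 determined.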

human GLUT2 = molecular target: T2, human GLUT2 (Homo sapiens, UniProt P11168); test: [3H]-deoxy-D-glucose uptake assay, GLUT2; conditions: [3H]-deoxy-D-glucose uptake in HEK293 cells stably expressing human GLUT2
T2 construct: expressed in transfected cells
T2 sequence (P11168 1-524): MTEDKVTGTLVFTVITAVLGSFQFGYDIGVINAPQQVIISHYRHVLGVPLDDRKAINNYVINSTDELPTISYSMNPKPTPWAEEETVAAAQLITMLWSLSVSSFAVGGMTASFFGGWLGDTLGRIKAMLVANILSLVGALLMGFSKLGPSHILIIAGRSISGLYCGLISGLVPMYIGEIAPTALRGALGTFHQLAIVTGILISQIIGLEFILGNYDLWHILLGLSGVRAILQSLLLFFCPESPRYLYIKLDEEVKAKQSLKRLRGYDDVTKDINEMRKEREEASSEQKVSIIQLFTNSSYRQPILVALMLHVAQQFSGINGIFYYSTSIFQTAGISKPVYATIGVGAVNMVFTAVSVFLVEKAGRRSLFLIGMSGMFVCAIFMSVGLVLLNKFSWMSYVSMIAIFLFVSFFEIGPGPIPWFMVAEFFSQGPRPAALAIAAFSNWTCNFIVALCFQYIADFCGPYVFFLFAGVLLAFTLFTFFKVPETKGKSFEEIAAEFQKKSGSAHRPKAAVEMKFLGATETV
How it was run: as §1

human GLUT3 = molecular target: T3, human GLUT3 (Homo sapiens, UniProt P11169); test: [3H]-deoxy-D-glucose uptake assay, GLUT3; conditions: [3H]-deoxy-D-glucose uptake in HEK293 cells stably expressing human GLUT3
T3 construct: expressed in transfected cells
T3 sequence (P11169 1-496): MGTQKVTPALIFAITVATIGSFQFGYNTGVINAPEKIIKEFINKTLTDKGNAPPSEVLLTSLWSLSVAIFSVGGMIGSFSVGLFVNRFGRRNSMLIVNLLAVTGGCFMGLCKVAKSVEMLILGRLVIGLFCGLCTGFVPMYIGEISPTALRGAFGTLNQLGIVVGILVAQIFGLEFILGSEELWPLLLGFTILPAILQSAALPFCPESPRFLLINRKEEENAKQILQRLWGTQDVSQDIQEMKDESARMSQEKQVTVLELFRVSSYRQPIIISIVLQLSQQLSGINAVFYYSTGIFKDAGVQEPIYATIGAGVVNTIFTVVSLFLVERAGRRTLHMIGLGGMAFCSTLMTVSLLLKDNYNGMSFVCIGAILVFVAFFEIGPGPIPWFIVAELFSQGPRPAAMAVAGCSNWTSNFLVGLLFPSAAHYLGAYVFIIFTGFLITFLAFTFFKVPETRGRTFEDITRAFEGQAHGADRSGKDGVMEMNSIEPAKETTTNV
Description: (§2) HEK293 cells were engineered to stably express either human GLUT1, GLUT2, GLUt3 or GLUT4 by transfection with the pReceiver-Lv105 plasmid, containing either hGLUT1, hGLUT2, hGLUT3, or hGLUT4 gene constructs with lipofectamine 2000, hGLUT1- hGLUT2- hGLUT3- or hGLUT4-overexpressing polyclonal populations were isolated under purinomycin selective pressure (1 μg/ml) and maintained in Dulbecco's modified Eagle's medium supplemented with 1 μg/ml purinomycin+10% foetal bovine serum (FBS).
(§3) 60,000 cells per well were seeded overnight into poly-D-lysine coasted 96-well plates. Following media removal, cells were washed twice in warm glucose-free uptake buffer (25 mM HEPES/KOH pH 7.4, 125 mM NaCl, 4.8 mM KCl, 1.2 mM MgSO4, 1.2 mM CaCl2, 1.2 mM KH2PO4). 90 μl of test compounds were added in glucose-free uptake buffer and cells were incubated at 37° C. for 30 min. 10 μl of [3H]-deoxy-D-glucose (0.25 μCi, 125 μM final assay concentration) was then added per well in glucose-free uptake buffer and uptake was allowed to proceed at 37° C. for 30 min.
(§4) Cells were then washed twice with ice-cold PBS and 100 μl of Microscint-20 was added per well. Glucose uptake was quantified with a scintillation counter. The half maximal inhibitory concentration (IC50) (a measure of the effectiveness of the test compound in inhibiting glucose uptake) was determined.

human GLUT4 = molecular target: T4, human GLUT4 (Homo sapiens, UniProt P14672); test: [3H]-deoxy-D-glucose uptake assay, GLUT4; conditions: [3H]-deoxy-D-glucose uptake in HEK293 cells stably expressing human GLUT4
T4 construct: expressed in transfected cells
T4 sequence (P14672 1-509): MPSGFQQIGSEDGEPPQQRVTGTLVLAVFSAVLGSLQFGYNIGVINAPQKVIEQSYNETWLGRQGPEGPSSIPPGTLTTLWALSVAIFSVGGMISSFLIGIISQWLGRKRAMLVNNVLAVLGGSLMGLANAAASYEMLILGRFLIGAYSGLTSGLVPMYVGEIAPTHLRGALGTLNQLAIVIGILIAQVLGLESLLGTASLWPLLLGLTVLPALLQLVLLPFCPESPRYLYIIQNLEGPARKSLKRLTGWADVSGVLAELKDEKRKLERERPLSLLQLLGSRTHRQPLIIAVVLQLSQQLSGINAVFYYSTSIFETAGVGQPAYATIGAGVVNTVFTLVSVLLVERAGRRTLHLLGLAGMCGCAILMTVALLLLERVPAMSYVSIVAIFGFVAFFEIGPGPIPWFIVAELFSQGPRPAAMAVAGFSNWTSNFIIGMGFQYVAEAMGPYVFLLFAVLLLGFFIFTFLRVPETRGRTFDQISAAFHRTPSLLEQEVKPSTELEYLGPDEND
Description: as §2, §3, §4

Structure (SMILES)	GLUT1 pIC50 (human GLUT1)	GLUT2 pIC50 (human GLUT2)	GLUT3 pIC50 (human GLUT3)	GLUT4 pIC50 (human GLUT4)
CN(c1ccc2nc(-c3ccc(Cl)cc3)c(CN3CCOCC3)n2c1)S(C)(=O)=O [Compound 252]	+++ (pIC50 ≧ 6.00)	++ (pIC50 5.00-5.99)	+++ (pIC50 ≧ 6.00)	+++ (pIC50 ≧ 6.00)
CC(=O)N1CCN(Cc2c(-c3ccc(Cl)cc3)nc3cnc(C4CC4)cn23)CC1 [Compound 187]	+++ (pIC50 ≧ 6.00)	+++ (pIC50 ≧ 6.00)	+++ (pIC50 ≧ 6.00)	+++ (pIC50 ≧ 6.00)
CC(=O)N1CCN(Cc2c(-c3ccc(Cl)cc3)nc3ccc(-c4ccccc4C#N)cn23)CC1 [Compound 214]	+++ (pIC50 ≧ 6.00)	+++ (pIC50 ≧ 6.00)	+++ (pIC50 ≧ 6.00)	+++ (pIC50 ≧ 6.00)
CC(=O)N1CCN(Cc2c(-c3ccc(Cl)cc3)nc3ccc(S(C)(=O)=O)cn23)CC1 [Compound 378]	+++ (pIC50 ≧ 6.00)	+− (pIC50 < 4.00)	+++ (pIC50 ≧ 6.00)	+++ (pIC50 ≧ 6.00)
CN(c1ccc2nc(-c3ccc(Cl)cc3Cl)c(CN3CCN(C(=O)c4ccc(F)cc4)CC3)n2c1)S(C)(=O)=O [Compound 363]	+++ (pIC50 ≧ 6.00)	+++ (pIC50 ≧ 6.00)	+++ (pIC50 ≧ 6.00)	+++ (pIC50 ≧ 6.00)
CSc1ccc2nc(-c3ccc(Cl)cc3)c(CN3CCN(C(C)=O)CC3)n2c1 [Compound 377]	++ (pIC50 5.00-5.99)	++ (pIC50 5.00-5.99)	+++ (pIC50 ≧ 6.00)	+++ (pIC50 ≧ 6.00)
CS(=O)(=O)Nc1ccc2nc(-c3ccc(Cl)cc3Cl)c(CN3CCN(C(=O)c4ccnnc4)CC3)n2c1 [Compound 356]	+++ (pIC50 ≧ 6.00)	+++ (pIC50 ≧ 6.00)	+++ (pIC50 ≧ 6.00)	+++ (pIC50 ≧ 6.00)
CCCS(=O)(=O)N(C)c1ccc2nc(-c3ccc(Cl)cc3)c(CN3CCN(C(C)=O)CC3)n2c1 [Compound 341]	+++ (pIC50 ≧ 6.00)	+− (pIC50 < 4.00)	+++ (pIC50 ≧ 6.00)	+++ (pIC50 ≧ 6.00)
CC(C)c1cn2c(CN3CCOCC3)c(-c3ccc(Cl)cc3Cl)nc2cn1 [Compound 366]	+++ (pIC50 ≧ 6.00)	+++ (pIC50 ≧ 6.00)	+++ (pIC50 ≧ 6.00)	+++ (pIC50 ≧ 6.00)
O=C(c1cnccn1)N1CCN(Cc2c(-c3ccc(Cl)cc3Cl)nc3cnc(C4CC4)cn23)CC1 [Compound 273]	+++ (pIC50 ≧ 6.00)	+++ (pIC50 ≧ 6.00)	+++ (pIC50 ≧ 6.00)	+++ (pIC50 ≧ 6.00)
CN(c1ccc2nc(-c3ccc(Cl)cc3Cl)c(CN3CCN4C(=O)CCC4C3)n2c1)S(C)(=O)=O (stereo not drawn) [Compound 374]	+++ (pIC50 ≧ 6.00)	+++ (pIC50 ≧ 6.00)	+++ (pIC50 ≧ 6.00)	+++ (pIC50 ≧ 6.00)
CS(=O)(=O)Nc1ccc2nc(-c3ccc(Cl)cc3Cl)c(CN3CCN4C(=O)CCC4C3)n2c1 (stereo not drawn) [Compound 373]	+++ (pIC50 ≧ 6.00)	+++ (pIC50 ≧ 6.00)	+++ (pIC50 ≧ 6.00)	+++ (pIC50 ≧ 6.00)
CC(=O)N1CCN(Cc2c(-c3ccc(Cl)cc3Cl)nc3ccc(N4CCCS4(=O)=O)cn23)CC1 [Compound 339]	+++ (pIC50 ≧ 6.00)	+++ (pIC50 ≧ 6.00)	+++ (pIC50 ≧ 6.00)	+++ (pIC50 ≧ 6.00)
O=C(CO)N1CCN(Cc2c(-c3ccc(Cl)cc3Cl)nc3cnc(C4CC4)cn23)CC1 [Compound 321]	+++ (pIC50 ≧ 6.00)	+++ (pIC50 ≧ 6.00)	+++ (pIC50 ≧ 6.00)	+++ (pIC50 ≧ 6.00)
CS(=O)(=O)Nc1ccc2nc(-c3ccc(Cl)cc3Cl)c(CN3CCN(C(=O)C4COC4)CC3)n2c1 [Compound 334]	+++ (pIC50 ≧ 6.00)	++ (pIC50 5.00-5.99)	+++ (pIC50 ≧ 6.00)	+++ (pIC50 ≧ 6.00)
CC(=O)N1CCN(Cc2c(-c3ccc(Cl)cc3Cl)nc3ccc(N(C)S(C)(=O)=O)cn23)CC1 [Compound 333]	+++ (pIC50 ≧ 6.00)	+++ (pIC50 ≧ 6.00)	+++ (pIC50 ≧ 6.00)	+++ (pIC50 ≧ 6.00)
CC(=O)N1CCN(Cc2c(-c3ccc(Cl)cc3Cl)nc3ccc(NS(C)(=O)=O)cn23)CC1 [Compound 313]	+++ (pIC50 ≧ 6.00)	++ (pIC50 5.00-5.99)	+++ (pIC50 ≧ 6.00)	+++ (pIC50 ≧ 6.00)
CNS(=O)(=O)c1ccc2nc(-c3ccc(Cl)cc3)c(CN3CCN(C(C)=O)CC3)n2c1 [Compound 351]	+++ (pIC50 ≧ 6.00)	++ (pIC50 5.00-5.99)	+++ (pIC50 ≧ 6.00)	+++ (pIC50 ≧ 6.00)
